Assay results taken from patent US20190367516A1 (Bayer Pharma Aktiengesellschaft, priority 2015, published 2019).
pEC50: −log10 of the molar value. Where two headings read alike, the source gives them in different places.

Molecular target: T1, human M2 receptor (Homo sapiens, UniProt P08172)
T1 sequence (P08172 1-466): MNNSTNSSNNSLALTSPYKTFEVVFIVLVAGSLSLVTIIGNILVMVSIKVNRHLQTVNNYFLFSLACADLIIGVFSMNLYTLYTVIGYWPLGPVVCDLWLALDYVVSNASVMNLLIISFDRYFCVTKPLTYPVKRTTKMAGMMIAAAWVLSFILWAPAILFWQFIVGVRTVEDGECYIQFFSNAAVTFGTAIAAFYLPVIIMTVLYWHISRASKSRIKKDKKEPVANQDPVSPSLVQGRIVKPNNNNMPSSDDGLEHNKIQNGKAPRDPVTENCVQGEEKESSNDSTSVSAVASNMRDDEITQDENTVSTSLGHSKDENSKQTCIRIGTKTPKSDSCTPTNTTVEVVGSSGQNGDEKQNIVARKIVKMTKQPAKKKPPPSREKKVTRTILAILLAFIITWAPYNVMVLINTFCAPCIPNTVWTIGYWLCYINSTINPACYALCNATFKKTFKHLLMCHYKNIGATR
Conditions: for Emax: read-out: Efficiency, boosting of the acetylcholine effect at EC20 acetylcholine concentration; for Efficiency: boosting of the acetylcholine effect at EC20 acetylcholine concentration

[1] = Receptor activity EC50, M2-GIRK1/4 activation test, acetylcholine at EC20, allosteric potency, in some cases mean values from two or more determinations
[2] = Receptor activity EC50, allosteric potency at EC20 acetylcholine, M2-GIRK1/4 reporter cells, in some cases mean of two or more determinations

Row | SMILES | pEC50 [1] | pEC50 [2] | Emax (M2-GIRK1/4 reporter cells) | Efficiency (M2-GIRK1/4 reporter cells)
1 | NC(=O)N1CCN(c2ccc3c(=O)c(C(=O)NC45CC6CC(CC(C6)C4)C5)cn(-c4ccc(F)cc4F)c3n2)CC1 [Example 12, 7-(4-Carbamoylpiperazin-1-yl)-1-(2,4-difluorophenyl)-4-oxo-N-(tricyclo[3.3.1.1^3,7]dec-1-yl)-1,4-dihydro-1,8-naphthyridine-3-carboxamide] | 7.19 | – | – | –
2 | CC(C)(CC(F)(F)F)NC(=O)c1cn(-c2c(F)cc(F)cc2Cl)c2nc(N3CCNC3=O)ccc2c1=O [Example 394, 1-(2-Chloro-4,6-difluorophenyl)-4-oxo-7-(2-oxoimidazolidin-1-yl)-N-(4,4,4-trifluoro-2-methylbutan-2-yl)-1,4-dihydro-1,8-naphthyridine-3-carboxamide] | 8.15 | – | – | –
3 | CC(C)(C)NC(=O)c1cn(-c2c(F)cc(F)cc2F)c2nc(N3C[C@@H](O)CC3=O)ccc2c1=O [Example 469, N-tert-Butyl-7-[(4S)-4-hydroxy-2-oxopyrrolidin-1-yl]-4-oxo-1-(2,4,6-trifluorophenyl)-1,4-dihydro-1,8-naphthyridine-3-carboxamide] | – | 7.70 | 100% | –
4 | CC(NC(=O)c1cn(-c2c(F)cc(F)cc2F)c2nc(N3C[C@@H](O)CC3=O)ccc2c1=O)C(F)(F)C(F)(F)F (single isomer, unassigned) [Example 531] | – | 8.05 | – | 97.0%
5 | O=C(NC12CC3CC(CC(C3)C1)C2)c1cn(-c2ccc(F)cc2F)c2nc(N3CCCCC3=O)ccc2c1=O [Example 165, 1-(2,4-Difluorophenyl)-4-oxo-7-(2-oxopiperidin-1-yl)-N-(tricyclo[3.3.1.1^3,7]dec-1-yl)-1,4-dihydro-1,8-naphthyridine-3-carboxamide] | 7.96 | – | – | –
6 | CCC(COC(F)(F)F)NC(=O)c1cn(-c2c(F)cc(F)cc2F)c2nc(N3C[C@@H](O)[C@H](O)C3)ccc2c1=O (single isomer, unassigned) [Example 577] | – | 7.70 | 100% | –
7 | COC(=O)N1CCN(c2ccc3c(=O)c(C(=O)N[C@@H](C4CC4)C(F)(F)F)cn(-c4c(F)cc(F)cc4F)c3n2)CC1 [Example 603, Methyl 4-[6-{[(1 S)-1-cyclopropyl-2,2,2-trifluoroethyl]carbamoyl}-5-oxo-8-(2,4,6-trifluorophenyl)-5,8-dihydro-1,8-naphthyridin-2-yl]piperazine-1-carboxylate] | – | 7.60 | 89.5% | –
8 | Cc1cccc(C)c1CNC(=O)c1cn(-c2ccc(F)cc2F)c2nc(N(C)C)ccc2c1=O [Example 51, 1-(2,4-Difluorophenyl)-7-(dimethylamino)-N-(2,6-dimethylbenzyl)-4-oxo-1,4-dihydro-1,8-naphthyridine-3-carboxamide] | 7.00 | – | – | –
9 | CC1C(=O)N(c2ccc3c(=O)c(C(=O)N[C@@H](C4CC4)C(F)(F)F)cn(-c4c(F)cc(F)cc4F)c3n2)CC1O (some centres unmarked) [Example 579, N-[(1 S)-1-Cyclopropyl-2,2,2-trifluoroethyl]-7-[4-hydroxy-3-methyl-2-oxopyrrolidin-1-yl]-4-oxo-1-(2,4,6-trifluorophenyl)-1,4-dihydro-1,8-naphthyridine-3-carboxamide] | – | 7.85 | 97.5% | –
10 | O=C(NC12CC3CC(CC(C3)C1)C2)c1cn(-c2ccc(F)cc2F)c2nc(N3CC(F)(F)C(F)(F)C3)ccc2c1=O [Example 77, 1-(2,4-Difluorophenyl)-4-oxo-7-(3,3,4,4-tetrafluoropyrrolidin-1-yl)-N-(tricyclo[3.3.1.1^3,7]dec-1-yl)-1,4-dihydro-1,8-naphthyridine-3-carboxamide] | 6.18 | – | – | –
11 | O=C(N[C@@H](C1CC1)C(F)(F)F)c1cn(-c2c(F)cc(F)cc2F)c2nc(N3CC(O)C4(CC4)C3)ccc2c1=O (single isomer, unassigned) [Example 602] | – | 7.64 | – | 91.5%
12 | NC(=O)[C@@H]1CN(c2ccc3c(=O)c(C(=O)N[C@@H](C4CC4)C(F)(F)F)cn(-c4c(F)cc(F)cc4F)c3n2)C(=O)O1 [Example 668, 7-[(5S)-5-Carbamoyl-2-oxo-1,3-oxazolidin-3-yl]-N-[(1 S)-1-cyclopropyl-2,2,2-trifluoroethyl]-4-oxo-1-(2,4,6-trifluorophenyl)-1,4-dihydro-1,8-naphthyridine-3-carboxamide] | – | 7.05 | 100% | –
13 | CN(CC(F)F)c1ccc2c(=O)c(C(=O)NC(C(F)(F)F)C(F)(F)F)cn(-c3ccc(F)cc3F)c2n1 [Example 115, 7-[(2,2-Difluoroethyl)(methyl)amino]-1-(2,4-difluorophenyl)-N-[1,1,1,3,3,3-hexafluoropropan-2-yl)-4-oxo-1,4-dihydro-1,8-naphthyridine-3-carboxamide] | 7.14 | – | – | –
14 | CC(NC(=O)c1cn(-c2c(F)cc(F)cc2F)c2nc(N3C[C@@H](O)[C@H](O)C3)ccc2c1=O)C1CCC1 (mixture of isomers) [Example 476, N-[1-Cyclobutylethyl]-7-[(3R,4R)-3,4-dihydroxypyrrolidin-1-yl]-4-oxo-1-(2,4,6-trifluorophenyl)-1,4-dihydro-1,8-naphthyridine-3-carboxamide] | – | 7.74 | 98% | –
15 | CC[C@H](NC(=O)c1cn(-c2c(F)cccc2Cl)c2nc(N3C[C@@H](O)[C@H](O)C3)ccc2c1=O)C(F)(F)F [Example 346, 1-(2-Chloro-6-fluorophenyl)-7-[(3R,4R)-3,4-dihydroxypyrrolidin-1-yl]-4-oxo-N-[(2S)-1,1-trifluorobutan-2-yl]-1,4-dihydro-1,8-naphthyridine-3-carboxamide] | 7.30 | – | – | –
16 | CN(C)c1ccc2c(=O)c(C(=O)NC34CC5CC(C3)CC(C(F)(F)F)(C5)C4)cn(-c3ccc(F)cc3Cl)c2n1 [Example 153, 1-(2-Chloro-4-fluorophenyl)-7-(dimethylamino)-4-oxo-N-[3-(trifluoromethyl)tricyclo[3.3.1.1^3,7]dec-1-yl]-1,4-dihydro-1,8-naphthyridine-3-carboxamide] | 6.98 | – | – | –
17 | O=C(NC(C(F)(F)F)C(F)(F)F)c1cn(-c2c(F)cc(F)cc2F)c2nc(N3C[C@@H](O)[C@H](O)C3)ccc2c1=O [Example 572, 7-[(3R,4R)-3,4-Dihydroxypyrrolidin-1-yl]-N-(1,1,1,3,3,3-hexafluoropropan-2-yl)-4-oxo-1-(2,4,6-trifluorophenyl)-1,4-dihydro-1,8-naphthyridine-3-carboxamide] | – | 7.92 | 100% | –
18 | CC[C@@H](NC(=O)c1cn(-c2ccc(F)cc2F)c2nc(N3C(=O)CCC3C)ccc2c1=O)C(F)(F)F (mixture of isomers) [Example 426, 1-(2,4-Difluorophenyl)-7-[2-methyl-5-oxopyrrolidin-1-yl]-4-oxo-N-[(2R)-1,1,1-trifluorobutan-2-yl]-1,4-dihydro-1,8-naphthyridine-3-carboxamide] | – | 7.32 | 92% | –
19 | O=C(NC(c1ccccc1Cl)C(F)(F)F)c1cn(-c2c(F)cc(F)cc2F)c2nc(N3CCNC3=O)ccc2c1=O (single isomer, unassigned) [Example 565, N-[1-(2-Chlorophenyl)-2,2,2-trifluoroethyl]-4-oxo-7-(2-oxoimidazolidin-1-yl)-1-(2,4,6-trifluorophenyl)-1,4-dihydro-1,8-naphthyridine-3-carboxamide] | – | 8.00 | – | –
20 | CC[C@@H](NC(=O)c1cn(-c2ccc(F)cc2F)c2nc(N3CCC(C)(O)C3=O)ccc2c1=O)C(F)(F)F (single isomer, unassigned) [Example 196] | 6.86 | – | – | –
21 | CN(C)c1ccc2c(=O)c(C(=O)NC(C3CC3)C(F)(F)F)cn(-c3ccc(F)cc3F)c2n1 (racemic) [Example 148, rac-N-(1-Cyclopropyl-2,2,2-trifluoroethyl)-1-(2,4-difluorophenyl)-7-(dimethylamino)-4-oxo-1,4-dihydro-1,8-naphthyridine-3-carboxamide] | 7.39 | – | – | –
22 | O=C(NC(c1ccccc1Cl)C(F)(F)F)c1cn(-c2c(F)cc(F)cc2F)c2nc(N3CCNC3=O)ccc2c1=O (racemic) [Example 563, N-[1-(2-Chlorophenyl)-2,2,2-trifluoroethyl]-4-oxo-7-(2-oxoimidazolidin-1-yl)-1-(2,4,6-trifluorophenyl)-1,4-dihydro-1,8-naphthyridine-3-carboxamide] | – | 7.70 | 100% | –
23 | CN(C)c1ccc2c(=O)c(C(=O)NC34CC5CC(CC(C)(C5)C3)C4)cn(-c3ccc(F)cc3F)c2n1 [Example 41, 1-(2,4-Difluorophenyl)-7-(dimethylamino)-N-(3-methyltricyclo[3.3.1.1^3,7]dec-1-yl)-4-oxo-1,4-dihydro-1,8-naphthyridine-3-carboxamide] | 7.41 | – | – | –
24 | O=C(NC12CC(F)(C1)C2)c1cn(-c2c(F)cc(F)cc2Cl)c2nc(N3C[C@@H](O)CC3=O)ccc2c1=O [Example 397, 1-(2-Chloro-4,6-difluorophenyl)-N-(3-fluorobicyclo[1.1.1]pent-1-yl)-7-[(4S)-4-hydroxy-2-oxopyrrolidin-1-yl]-4-oxo-1,4-dihydro-1,8-naphthyridine-3-carboxamide] | – | 7.49 | 90% | –
25 | O=C(N[C@@H](C1CC1)C(F)(F)F)c1cn(-c2c(F)cccc2F)c2nc(N3CCNC3=O)ccc2c1=O [Example 644, N-[(1 S)-1-Cyclopropyl-2,2,2-trifluoroethyl]-1-(2,6-difluorophenyl)-4-oxo-7-(2-oxoimidazolidin-1-yl)-1,4-dihydro-1,8-naphthyridine-3-carboxamide] | – | 7.13 | 85% | –
